{
  "source": "paper PMC7614683",
  "about": "“A small molecule PI3Kα activator for cardioprotection and neuroregeneration” (Nature, 2023)",
  "key": {"CDK2/cyclin E1": {"target": "CDK2/cyclin E1 (Homo sapiens, UniProt P24941)", "test": "SelectScreen LanthaScreen Binding", "conditions": "1000 nM", "method": "133 protein kinases and 7 lipid kinases were counterscreened, with 1938 used at 1 μM, using the Adapta, Lantha and Z-LYTE assays (SelectScreen Kinase Profiling Service; Thermofisher – experimental details of these assays can be found here: https://www.thermofisher.com/uk/en/home/industrial/pharma-biopharma/drug-discovery-development/target-and-lead-identification-and-validation/kinasebiology/kinase-activity-assays.html. The tree represention in KinMap[59] generated courtesy of Cell Signaling Technology, Inc. (www.cellsignal.com). mTORC1 (mTOR/RAPTOR/LST8) protein complex and ATM kinase and substrates were produced as previously described[57],[60]. Screening of 1938 was conducted using SuperSep Phos-Tag 50 μmol/l 100 x 100 x 6.6 mm 17-well (192-18001/199-18011) gels. For ATM assays, 100 nM ATM was incubated for 30 min at 30°C with 5 μM GST-p53 and 1 mM ATP, in the absence or presence of 200 μM 1938 in ATM Kinase Buffer (50 mM HEPES pH 7.5, 100 mM NaCl, 10% glycerol, 2 mM […], 5 mM MgCl2). As a positive control for ATM activation, the same reaction was carried out with 100 nM ATM/5 μM GST-p53/1 mM ATP in the presence of 100 nM Mre11-Rad50-Nbs1 (MRN) complex, a known activator of ATM[61]. For mTORC1 assays, 50 nM mTORC1 complex (mTOR/LST8/RAPTOR) was incubated for 3 h at 30°C with 15 μM 4E-BP1, 10 mM MgCl2 and 250 μM ATP, in the absence or presence of 200 μM 1938. As a ‘positive’ control, a higher concentration (150 nM) of mTORC1 complex (mTOR/LST8/RAPTOR) was incubated for 3 h at 30°C with 15 μM 4E-BP1, 10 mM MgCl2 and 250 μM ATP. Kinase reactions were quenched by addition of SDS-PAGE Loading Buffer (as per manufacturer’s instructions) and freezing at -20°C before being run on the Phos-tag gels at 150 V for 90 min. Gels were then stained using InstantBlue™ Coomassie, and quantified using BioRad Image Lab Software. Kinase assays were carried out in triplicate."}, "PI3Kα-WT MEFs": {"tested_on": "PI3Kα-WT MEFs", "test": "CellTiter-Glo cell assay, PI3Kα-WT MEFs", "format": "cell-based, mouse", "method": "MEFs were seeded at 5000 cells per well in 96-well plates in DMEM supplemented with 10% FBS and 1% P/S, and allowed to attach overnight. The next day, cells were serum starved for 4 h prior to compound treatment in fresh serum-free DMEM. Compounds solubilised in DMSO were diluted 1:2 in a 12-point concentration response curve in DMSO. Intermediate plates were prepared by transferring 4 μl of compounds in DMSO into 96 μl of serum-free DMEM media. This was then used to treat cell plates by transferring 12.5 μl of solution from the intermediate plate into 87.5 μl of serum-free DMEM in the cell plates. […] Cell plates were incubated for 24 h, 48 h or 72 h at 37°C, 5% CO2, followed by determination of cell survival using the CellTiter-Glo® reagent according to manufacturer’s instructions (Promega #G7571). Endpoint luminescence was measured using CLARIOstar (BMG). Compound data were analyzed using GraphPad Prism 8."}, "full length p110α/p85α": {"target": "T1, full length p110α/p85α (Homo sapiens, UniProt P42336)", "T1 construct": "Full-length human p110α was expressed either in a complex with full-length human p85α (for HTS, biochemistry and HDX-MS); 6xHis tag followed by TEV protease site (N); host or cells: Spodoptera frugiperda Sf9, baculovirus", "T1 sequence (P42336 whole entry)": "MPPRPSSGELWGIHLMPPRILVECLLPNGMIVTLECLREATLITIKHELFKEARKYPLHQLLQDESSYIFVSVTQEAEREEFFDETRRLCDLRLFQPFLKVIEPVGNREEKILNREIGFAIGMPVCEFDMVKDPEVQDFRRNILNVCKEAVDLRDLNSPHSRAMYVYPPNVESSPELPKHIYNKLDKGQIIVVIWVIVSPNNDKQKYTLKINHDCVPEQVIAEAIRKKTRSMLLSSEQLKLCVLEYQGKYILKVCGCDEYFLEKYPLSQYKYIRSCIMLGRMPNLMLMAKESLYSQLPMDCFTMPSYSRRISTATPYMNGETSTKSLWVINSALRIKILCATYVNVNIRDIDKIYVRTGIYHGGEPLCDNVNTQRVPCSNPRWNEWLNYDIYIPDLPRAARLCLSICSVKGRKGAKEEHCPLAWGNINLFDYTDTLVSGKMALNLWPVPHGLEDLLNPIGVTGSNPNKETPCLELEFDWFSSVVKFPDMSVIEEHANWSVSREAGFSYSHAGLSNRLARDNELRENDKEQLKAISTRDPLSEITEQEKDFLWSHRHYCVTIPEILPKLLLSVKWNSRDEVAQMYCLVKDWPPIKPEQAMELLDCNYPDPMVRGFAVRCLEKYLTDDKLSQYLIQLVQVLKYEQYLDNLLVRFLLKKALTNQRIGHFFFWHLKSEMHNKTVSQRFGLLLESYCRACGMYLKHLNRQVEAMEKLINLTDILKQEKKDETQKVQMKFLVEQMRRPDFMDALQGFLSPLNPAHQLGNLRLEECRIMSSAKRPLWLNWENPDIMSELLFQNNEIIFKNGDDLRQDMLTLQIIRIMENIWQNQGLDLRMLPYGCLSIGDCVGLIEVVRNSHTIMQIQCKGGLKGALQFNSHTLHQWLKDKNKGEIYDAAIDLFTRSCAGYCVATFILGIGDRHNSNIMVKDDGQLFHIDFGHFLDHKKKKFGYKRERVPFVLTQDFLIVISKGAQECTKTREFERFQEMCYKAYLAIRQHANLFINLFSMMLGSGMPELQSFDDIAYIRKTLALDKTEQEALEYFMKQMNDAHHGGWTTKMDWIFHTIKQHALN", "T1 sequence (P27986 whole entry partner)": "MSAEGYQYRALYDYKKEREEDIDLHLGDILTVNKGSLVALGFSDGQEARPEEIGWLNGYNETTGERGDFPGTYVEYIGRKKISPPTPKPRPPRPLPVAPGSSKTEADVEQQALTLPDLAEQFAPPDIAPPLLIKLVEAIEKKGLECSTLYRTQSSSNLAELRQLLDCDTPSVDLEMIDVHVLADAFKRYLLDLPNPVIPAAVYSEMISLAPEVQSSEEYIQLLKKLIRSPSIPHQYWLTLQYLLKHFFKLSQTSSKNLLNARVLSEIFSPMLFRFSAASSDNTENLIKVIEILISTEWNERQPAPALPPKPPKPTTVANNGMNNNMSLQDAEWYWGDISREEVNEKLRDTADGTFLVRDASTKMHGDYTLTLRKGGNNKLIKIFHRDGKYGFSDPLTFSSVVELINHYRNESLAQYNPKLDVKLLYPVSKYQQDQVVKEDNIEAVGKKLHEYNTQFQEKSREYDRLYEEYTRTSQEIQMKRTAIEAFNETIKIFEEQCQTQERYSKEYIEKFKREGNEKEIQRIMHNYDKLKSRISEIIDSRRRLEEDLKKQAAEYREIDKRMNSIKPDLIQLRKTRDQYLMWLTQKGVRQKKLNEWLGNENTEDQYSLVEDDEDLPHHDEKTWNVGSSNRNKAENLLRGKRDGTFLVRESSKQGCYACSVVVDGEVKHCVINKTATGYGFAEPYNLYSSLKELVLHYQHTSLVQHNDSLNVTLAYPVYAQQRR", "test": "Differential scanning fluorimetry", "format": "binding", "conditions": "mean ± SD, n=3; read-out: Kd for PI3Kα by differential scanning fluorimetry", "method": "Thermal denaturation was followed using intrinsic protein fluorescence measured with the NanoTemper Prometheus NT48 instrument (Nanotemper Technologies, München, Germany). Samples in HBS-P (Cytiva) supplemented with 5% (v/v) DMSO containing 3 μM full length p110α/p85α and a 1:2 dilution series of 1938 (from 440 μM to 13.8 nM) were loaded into standard capillaries and heated at 2 °C/min from 15 to 95 °C. The first derivative of the fluorescence emission ratio 350/330 nm were analyzed using the PR.ThermControl v2.3.1 (NanoTemper), to define the Tm. Independent experiments using the same protein and compound stocks were performed in triplicate. Data were fitted using Prism 9.4.1 (GraphPad Software Inc). Dissociation constants were calculated using fits to a single-site ligand depletion model: (2) T=T0+(T1−T0){([CT]+[PT]+[KD])−([CT]+[PT]+KD)^2−4[CT][PT]}/2[PT] where T0 and T1 are the Tm in the absence of titrating compound and at saturation respectively, [PT] and [CT] are the total concentrations of protein and compound respectively and KD is the dissociation constant."}, "PI3Kα": {"target": "T2, PI3Kα (Homo sapiens, UniProt P42336)", "T2 construct": "Full-length human p110α was expressed either in a complex with full-length human p85α (for HTS, biochemistry and HDX-MS); 6xHis tag followed by TEV protease site (N); host or cells: Spodoptera frugiperda Sf9, baculovirus", "T2 sequence (P42336 whole entry)": "as the sequence (P42336 whole entry) above", "T2 sequence (P27986 whole entry partner)": "as the sequence (P27986 whole entry partner) above", "test": "FRET membrane binding assay", "format": "biochemical", "conditions": "compared with pY", "method": "Membrane binding assays were performed as previously published. Briefly, liposomes were prepared with 5% (w/v) brain PtdIns(4,5)P2, 20% brain phosphatidylserine, 35% brain phosphatidylethanolamine, 15% brain phosphatidylcholine, 10% cholesterol, 5% sphingomyelin, and 10% dansyl-phosphatidylserine (Avanti Polar Lipids). PI3Kα was used at a final concentration of 0.5 μM. Protein solutions were preincubated with 10 μM pY or compounds for 10 min before addition of liposomes. Liposomes were used at a final concentration of 50 μg/ml. The reaction mixture contained 5 μl enzyme, 2 μl compound and 3 μl liposomes, all diluted in 30 mM HEPES, 50 mM NaCl, pH 7.4. The reaction was allowed to proceed for 10 min at room temperature with 384 black-polystyrene plates (Corning #3544) on an orbital shaker at 200 rpm. FRET signals were measured using PHERAStar (BMG) with a 280 nm excitation filter with 350 nm and 520 nm emission filters to measure Dansyl-PS FRET emissions, respectively. FRET signal shown as I-I0, where I is the intensity at 520 nm, and I0 is the intensity at 520 nm for the solution in the absence of protein."}},
  "data": [
    {"compound": "CCN1CCN(c2ccc(Nc3cc(Nc4cccc5c4N(C(C)=O)CC5)ccn3)cc2)CC1", "note": "[Compound 1938]", "values": [
      {"measurement": "% Displacement Point 1", "setting": "CDK2/cyclin E1", "result": 3, "unit": "%"},
      {"measurement": "% Displacement Point 2", "setting": "CDK2/cyclin E1", "result": -14, "unit": "%"},
      {"measurement": "% Displacement mean", "setting": "CDK2/cyclin E1", "result": -5.56, "unit": "%"},
      {"measurement": "concentrations with a decrease in ATP levels (PI3Kα-independent effects)", "setting": "PI3Kα-WT MEFs; 24h", "result": "> 7.5", "unit": "µM"},
      {"measurement": "concentration from which non-PI3Kα-dependent effects are observed", "setting": "PI3Kα-WT MEFs; 48h and 72h incubation, PI3Kα-WT and PI3Kα-KO MEFs", "result": "2 to 4", "unit": "µM"},
      {"measurement": "EC50", "setting": "PI3Kα-WT MEFs; Mus musculus, 24h treatment, read-out: EC50 of increase in metabolic activity (ATP content)", "result": "~0.5", "unit": "µM"},
      {"measurement": "Kd", "setting": "full length p110α/p85α", "result": "16 ± 2", "unit": "µM"},
      {"measurement": "PI3Kα binding to lipid membranes (FRET signal), maximum level", "setting": "PI3Kα", "result": "about half of that induced by pY"}
    ]}
  ]
}
